The text below walks through data of US10053458B2, “Pyrimidine-2,4-diamine derivative and anticancer pharmaceutical composition comprising same as effective ingredient” (KOREA RESEARCH INSTITUTE OF CHEMICAL TECHNOLOGY, priority 2014, dated 2018).

In general, IC50 refers to the midpoint of a concentration-inhibition curve. The term GI50 denotes the concentration giving 50% growth inhibition.

Where two headings read alike, the source gives them in different places.

In data set [1] the test system is BaF3 EML4-ALK WT cells. The conditions noted are these: mouse, 3 days.
A further data set concerns H2228. Description: Cancer cell proliferation inhibition (SRB/MTS), H2228. The conditions noted are these: read-out: H2228 GI50.
The subject of a further data set is H3122. Briefly: Cancer cell proliferation inhibition (SRB/MTS), H3122. The conditions noted are these: read-out: H3122 GI50.
For the next data set, the target named is ALK wt. (Homo sapiens (Human), UniProt Q9UM73). Briefly: ALK enzyme inhibitory activity (HTRF kinase assay), ALK wt. The note with it: read-out: ALK wt. IC50, enzyme level.
Data set [2] deals with BaF3 EML4-ALK WT cells. Description: Cytotoxicity on BaF3 cell transfected with EML4-ALK WT (WST-1). The note with it: read-out: BaF3 EML4-ALK WT, IC50 of the cytotoxicity. On the technique in general: Tetrazolium dyes change colour on reduction, which living cells bring about.
[3] abbreviates: non-small cell lung cancer cell line, 72 hours.

ALK wt., sequence (Q9UM73 19-1620): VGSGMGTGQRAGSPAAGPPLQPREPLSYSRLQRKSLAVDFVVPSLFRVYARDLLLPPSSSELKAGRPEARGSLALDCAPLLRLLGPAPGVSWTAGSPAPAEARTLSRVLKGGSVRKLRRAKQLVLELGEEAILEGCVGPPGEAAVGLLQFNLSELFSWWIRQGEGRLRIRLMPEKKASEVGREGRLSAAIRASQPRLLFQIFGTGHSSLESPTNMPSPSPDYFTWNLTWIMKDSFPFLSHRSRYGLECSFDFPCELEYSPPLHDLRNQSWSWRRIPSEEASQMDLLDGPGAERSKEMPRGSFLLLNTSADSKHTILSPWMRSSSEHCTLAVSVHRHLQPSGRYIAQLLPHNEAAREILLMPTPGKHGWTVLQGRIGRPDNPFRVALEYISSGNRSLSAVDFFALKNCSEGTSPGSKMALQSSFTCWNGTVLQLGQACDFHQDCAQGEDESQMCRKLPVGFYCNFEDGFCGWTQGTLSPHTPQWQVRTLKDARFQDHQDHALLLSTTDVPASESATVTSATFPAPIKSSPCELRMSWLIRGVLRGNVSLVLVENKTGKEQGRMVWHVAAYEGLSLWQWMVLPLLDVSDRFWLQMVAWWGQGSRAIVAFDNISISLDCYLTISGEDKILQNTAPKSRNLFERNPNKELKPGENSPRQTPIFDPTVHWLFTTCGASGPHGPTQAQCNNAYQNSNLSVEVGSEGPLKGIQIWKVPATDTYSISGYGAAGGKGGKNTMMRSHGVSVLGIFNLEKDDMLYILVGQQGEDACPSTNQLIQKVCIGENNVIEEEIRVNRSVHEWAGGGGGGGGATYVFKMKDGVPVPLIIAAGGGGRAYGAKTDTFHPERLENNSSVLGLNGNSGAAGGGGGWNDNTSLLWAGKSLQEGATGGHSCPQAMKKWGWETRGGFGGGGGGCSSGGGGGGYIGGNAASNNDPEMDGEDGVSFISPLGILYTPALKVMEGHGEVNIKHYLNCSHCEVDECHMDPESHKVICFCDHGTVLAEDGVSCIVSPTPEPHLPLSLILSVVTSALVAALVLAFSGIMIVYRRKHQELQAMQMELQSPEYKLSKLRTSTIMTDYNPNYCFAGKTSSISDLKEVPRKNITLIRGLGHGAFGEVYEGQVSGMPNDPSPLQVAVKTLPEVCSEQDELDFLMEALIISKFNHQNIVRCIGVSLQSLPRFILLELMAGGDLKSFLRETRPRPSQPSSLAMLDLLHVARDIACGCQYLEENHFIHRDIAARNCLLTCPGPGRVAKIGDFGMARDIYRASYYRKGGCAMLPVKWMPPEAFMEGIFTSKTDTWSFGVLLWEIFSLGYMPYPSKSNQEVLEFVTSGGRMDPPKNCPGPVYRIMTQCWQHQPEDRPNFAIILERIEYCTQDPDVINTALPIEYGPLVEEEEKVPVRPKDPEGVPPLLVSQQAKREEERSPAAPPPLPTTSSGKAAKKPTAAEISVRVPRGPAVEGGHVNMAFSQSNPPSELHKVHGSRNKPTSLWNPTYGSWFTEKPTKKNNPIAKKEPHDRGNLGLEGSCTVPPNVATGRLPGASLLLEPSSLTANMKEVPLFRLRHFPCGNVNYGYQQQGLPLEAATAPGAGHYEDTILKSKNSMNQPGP
Method for H2228: (§1) Cancer cell lines used in the experiments were all human-derived cancer cell lines, specifically H2228 and H3122, which are non-small cell lung cancer cell lines.
(§2) The cancer cell proliferation inhibition was measured using the MTS assay as follows. […] Each culture medium was placed in an incubator for 4 hours, taken out and left at room temperature for 10 minutes.
Method for H3122: as §1, §2

The compound `Cc1cc(Nc2ncc(Cl)c(Nc3ccccc3S(=O)(=O)C(C)C)n2)c(OC(C)C)cc1C1CCNCC1` [Comparative Example 2, LDK-378, reference compound] gave an IC50 in the data set on BaF3 EML4-ALK WT cells [1] of 19 nM. The GI50 is 25 nM in the data set on H2228 (Homo sapiens, NCI-H2228, 72 h) and 23 nM with H3122 (Homo sapiens, NCI-H3122, 72 h).

Regarding `COc1cc2c(cc1Nc1ncc(Cl)c(Nc3ccccc3S(=O)(=O)C(C)C)n1)CN(CCO)CC2(C)C` [Example 93], the GI50 in the data set with H2228 (setting [3]) and with H3122 (setting [3]) was less than 50 nM each time. Further, the IC50 on ALK wt. is less than 10 nM; in the data set on BaF3 EML4-ALK WT cells [2] (3 days, WST-1), less than 50 nM.

For `COc1cc2c(cc1Nc1ncc(Cl)c(Nc3ccccc3S(=O)(=O)C(C)C)n1)C(C)NCC2` (stereo not shown) [Example 46], the GI50 in the data set on H2228 (Homo sapiens, NCI-H2228, 72 h) is less than 50 nM; in the data set on H3122 (Homo sapiens, NCI-H3122, 72 h), less than 50 nM. For the same compound, in the data set with BaF3 EML4-ALK WT cells [2] (Ba/F3 EML4-ALK, 72 h), the IC50 is less than 50 nM.

In the case of `COc1cc2c(cc1Nc1ncc(Cl)c(Nc3ccccc3S(=O)(=O)C(C)C)n1)CCNC2C(C)C` (stereo not shown) [Example 28], the GI50 in the data set with H2228 (Homo sapiens, NCI-H2228, 72 h) was less than 50 nM; in the data set on H3122 (Homo sapiens, NCI-H3122, 72 h), 21 nM. Also, in the data set with BaF3 EML4-ALK WT cells [2] (Ba/F3 EML4-ALK, 72 h), the IC50 was determined as 13 nM.

As for `COc1cc2c(cc1Nc1ncc(Cl)c(Nc3ccccc3S(=O)(=O)C(C)C)n1)CC1(CC1)N(C(=O)C(F)(F)F)C2C` (stereo not shown) [Example 29], the GI50 is less than 50 nM with H2228 (Homo sapiens, NCI-H2228, 72 h) and less than 50 nM in the data set on H3122 (Homo sapiens, NCI-H3122, 72 h). The IC50 with BaF3 EML4-ALK WT cells [2] (Ba/F3 EML4-ALK, 72 h) is less than 50 nM.

As to `CCN1CCc2cc(Nc3ncc(Cl)c(Nc4ccccc4S(=O)(=O)C(C)C)n3)c(OC(C)C)cc2C1(C)C` [Example 79, 5-chloro-N4-(2-(isopropylsulfonyl)phenyl)-N2-(2-ethyl-7-isopropoxy-1,1-dimethyl-1,2,3,4-tetrahydroisoquinolin-6-yl)pyrimidine-2,4-diamine], the GI50 is less than 50 nM with H2228 (Homo sapiens, NCI-H2228, 72 h) and less than 50 nM with H3122 (Homo sapiens, NCI-H3122, 72 h). Further, in the data set on BaF3 EML4-ALK WT cells [2] (Ba/F3 EML4-ALK, 72 h), the IC50 was less than 50 nM.

`COc1cc2c(cc1Nc1ncc(Cl)c(Nc3ccccc3S(=O)(=O)C(C)C)n1)C1(CCCCC1)CNC2` [Example 16, 5-chloro-N4-(2-(isopropylsulfonyl)phenyl)-N2-(7-methoxy-2,3-dihydro-1H-spiro[cyclohexane-1,4-isoquinoline]-6-yl)pyrimidine-2,4-diamine]: the GI50 was less than 50 nM in the data set with H2228 (Homo sapiens, NCI-H2228, 72 h) and less than 50 nM in the data set on H3122 (Homo sapiens, NCI-H3122, 72 h). Moreover, in the data set on BaF3 EML4-ALK WT cells [2] (Ba/F3 EML4-ALK, 72 h), the IC50 was less than 50 nM.

As to `COc1cc2c(cc1Nc1ncc(Cl)c(Nc3ccccc3S(=O)(=O)C(C)C)n1)CN(C)CC2(C)C` [Example 91, 5-chloro-N4-(2-(isopropylsulfonyl)phenyl)-N2-(6-methoxy-2,4,4-trimethyl-1,2,3,4-tetrahydroisoquinolin-7-yl)pyrimidine-2,4-diamine], the GI50 in the data set with H2228 (Homo sapiens, NCI-H2228, 72 h) was less than 50 nM; in the data set with H3122 (Homo sapiens, NCI-H3122, 72 h), less than 50 nM. Further, in the data set on BaF3 EML4-ALK WT cells [2] (Ba/F3 EML4-ALK, 72 h), the IC50 was less than 50 nM.

With `COc1cc2c(cc1Nc1ncc(Cl)c(Nc3ccccc3S(=O)(=O)C(C)C)n1)CCN(Cc1ccccc1)C2(C)C` [Example 31, 5-chloro-N4-(2-(isopropylsulfonyl)phenyl)-N2-(2-benzyl-7-methoxy-1,1-dimethyl-1,2,3,4-tetrahydroisoquinolin-6-yl)pyrimidine-2,4-diamine], the GI50 is less than 50 nM in the data set with H2228 (Homo sapiens, NCI-H2228, 72 h) and less than 50 nM in the data set with H3122 (Homo sapiens, NCI-H3122, 72 h). Besides, in the data set with BaF3 EML4-ALK WT cells [2] (Ba/F3 EML4-ALK, 72 h), the IC50 was less than 50 nM.
